In US20230202989A1, “COMPOUNDS” (JANSSEN PHARMACEUTICA NV, priority 2020, published 2023) one finds IC50 and EC50 data, which are given here for 35 compounds.

A value given as a limit tells only on which side of the number the result lay.

Test [1] deals with IL-1β. As to the kind of experiment: PBMC assay: inhibition of IL-1β release after LPS stimulation (MSD). It is filed as cell-based. The note with it: Homo sapiens, PBMC, 6 h, human PBMCs, 100 ng/ml LPS for 6 hrs, MSD, 96 well plates; read-out: IL1β IC50. The method, then: Peripheral venous blood s collected from health individuals and human peripheral blood mononuclear cells (PBMCs) ere isolated from blood by Ficoll Histopaque (Sigma-Aldrich, A0561) density gradient centrifugation. After isolation, PBMCs were stored in liquid nitrogen for later use. Upon thawing, PBMC cell viability was determined in growth medium (RPMI media supplemented with 10% fetal bovine serum, 1% Pen-Strep and 1% L-glutamine). […] PBMCs were added at a density of 7.5×10^4 cells per well and incubated for 30 min in a 5% CO2 incubator at 37° C. LPS stimulation was performed by addition of 100 ng/ml LPS (final concentration, Invivogen, tlrl-smlps) for 6 hrs followed by collection of cellular supernatant and the analysis of IL-1β (μM) and TNF cytokines levels (μM) via MSD technology according to manufacturers' guidelines (MSD, K151A0H).
(§1) The IC50 values (for IL-1β) and EC50 values (TNF) were obtained on compounds of the invention/examples, and are depicted in the following table: […]

Test [2] relates to TNF. As to the kind of experiment: PBMC assay: TNF cytokine levels after LPS stimulation (MSD). It is filed as cell-based. The note with it: Homo sapiens, PBMC, 6 h, human PBMCs, 100 ng/ml LPS for 6 hrs. The method, then: Peripheral venous blood s collected from health individuals and human peripheral blood mononuclear cells (PBMCs) ere isolated from blood by Ficoll Histopaque (Sigma-Aldrich, A0561) density gradient centrifugation. After isolation, PBMCs were stored in liquid nitrogen for later use. Upon thawing, PBMC cell viability was determined in growth medium (RPMI media supplemented with 10% fetal bovine serum, 1% Pen-Strep and 1% L-glutamine). Compounds were spotted in a 1:3 serial dilution in DMSO and diluted to the final concentration in 30 μl medium in 96 well plates (Falcon, 353072). PBMCs were added at a density of 7.5×10^4 cells per well and incubated for 30 min in a 5% CO2 incubator at 37° C. LPS stimulation was performed by addition of 100 ng/ml LPS (final concentration, Invivogen, tlrl-smlps) for 6 hrs followed by collection of cellular supernatant and the analysis of IL-1β (μM) and TNF cytokines levels (μM) via MSD technology according to manufacturers' guidelines (MSD, K151A0H).
as §1

On to `CCc1nn(CC(=O)N[C@H]2C[C@@](C)(O)C2)c(=O)c2ccc(C(F)F)cc12` [Final Cpd 17], for which the IC50 in test [1] was found to be 0.54 µM. In addition, the EC50 in test [2] is > 10 µM.
As for `CCc1nn(CC(=O)N[C@H]2C[C@@](C)(O)C2)c(=O)c2ccc(Br)cc12` [Final Cpd 18], the IC50 in test [1] came out at 0.03 µM. Besides, in test [2], the EC50 was > 10 µM.
The corresponding values for `CCc1nn(CC(=O)N[C@H]2C[C@@](C)(O)C2)c(=O)c2ccc(C(F)(F)F)cc12` [Final Cpd 19] are 0.14 µM and > 10 µM.
For the compound `CCc1nn(CC(=O)N[C@H]2C[C@@](C)(O)C2)c(=O)c2ccc(C(C)C)cc12` [Final Cpd 20], in test [1], the half-inhibitory concentration (IC50) was 0.24 µM. In addition, the EC50 in test [2] is > 10 µM.
For `CCc1nn(CC(=O)N[C@H]2C[C@@](C)(O)C2)c(=O)c2ccc(C3CC3)cc12` [Final Cpd 21], the IC50 in test [1] is 0.29 µM. The EC50 in test [2] was > 10 µM.
The corresponding values for `CCc1ccc2c(=O)n(CC(=O)N[C@H]3C[C@@](C)(O)C3)nc(CC)c2c1` [Final Cpd 22] are 0.34 µM and > 10 µM.
In the case of `CC(C)c1nn(CC(=O)Nc2ccncn2)c(=O)c2ccc(C3CC3)cc12` [Final Cpd 23], in test [1], the IC50 amounted to 0.287 µM. For the same compound, in test [2], a half-maximal effect (EC50) was put at 12 µM.
The corresponding values for `CCc1nn(CC(=O)N[C@H]2CC[C@H](O)CC2)c(=O)c2ccc(Br)cc12` [Final Cpd 24, trans-2-(6-bromo-4-ethyl-1-oxo-phthalazin-2-yl)-N-(4-hydroxycyclohexyl)acetamide] are 0.89 µM and > 10 µM.
Turning to `CC(C)c1nn(CC(=O)N[C@H]2C[C@@](C)(O)C2)c(=O)c2ccc(C(F)(F)F)cc12` [Final Cpd 25], the IC50 in test [1] was 0.058 µM. Also, in test [2], the EC50 came to 15.4 µM.
For `CCc1nn(CC(=O)N[C@H]2CC[C@H](O)CC2)c(=O)c2ccc(C)cc12` [Final Cpd 26, trans-2-(6-methyl-4-ethyl-1-oxo-phthalazin-2-yl)-N-(4-hydroxycyclohexyl)acetamide], in that order: > 10 µM and > 10 µM.
Take `CCc1nn(CC(=O)N[C@H]2CC[C@H](O)CC2)c(=O)c2ccc(C3CC3)cc12` [Final Cpd 27]: the IC50 in test [1] is 1.66 µM. In addition, the EC50 in test [2] is > 10 µM.
For `CCc1nn(CC(=O)N[C@H]2CC[C@H](O)CC2)c(=O)c2ccc(C(C)C)cc12` [Final Cpd 28], in that order: 0.97 µM and > 10 µM.
As for `CCc1ccc2c(=O)n(CC(=O)N[C@H]3CC[C@H](O)CC3)nc(CC)c2c1` [Final Cpd 29], in test [1], the IC50 was determined as 3.59 µM. In addition, the EC50 in test [2] is > 10 µM.
Consider `CCc1nn(CC(=O)N[C@H]2CC[C@H](O)CC2)c(=O)c2ccc(C(F)(F)F)cc12` [Final Cpd 30], for which the IC50 in test [1] came out at 1.29 µM. In addition, the EC50 in test [2] is > 10 µM.
The corresponding values for `CC(C)c1nn(CC(=O)Nc2ccc3nncn3c2)c(=O)c2ccc(C3CC3)cc12` [Final Cpd 31] are 0.103 µM and 13.6 µM.
For `CC(C)c1nn(CC(=O)N[C@H]2C[C@@](C)(O)C2)c(=O)c2ccc(C3CC3)cc12` [Final Cpd 32], in that order: 0.213 µM and > 20 µM.
With `CC(C)c1ccc2c(=O)n(CC(=O)Nc3ccc4nncn4c3)nc(C(C)C)c2c1` [Final Cpd 33], in test [1], the IC50 was < 0.12 µM. Besides, in test [2], the EC50 was > 10 µM.
The corresponding values for `CC(C)c1ccc2c(=O)n(CC(=O)N[C@H]3C[C@@](C)(O)C3)nc(C(C)C)c2c1` [Final Cpd 34] are < 0.12 µM and > 10 µM.
For `CC(C)c1ccc2c(=O)n(CC(=O)Nc3ccncn3)nc(C(C)C)c2c1` [Final Cpd 35], in that order: 0.17 µM and > 10 µM.
For `CC(C)c1nn(CC(=O)Nc2ccc3nncn3c2)c(=O)c2ccc(Br)cc12` [Final Cpd 36], in that order: < 0.025 µM and > 10 µM.
Regarding `CC(C)c1nn(CC(=O)N[C@H]2C[C@@](C)(O)C2)c(=O)c2ccc(Br)cc12` [Final Cpd 37], in test [1], the IC50 is < 0.025 µM. Also, in test [2], the EC50 is > 10 µM.
For `CC(C)c1nn(CC(=O)Nc2ccncn2)c(=O)c2ccc(Br)cc12` [Final Cpd 38], in that order: < 0.025 µM and > 10 µM.
`CC(C)c1nn(CC(=O)Nc2ccc3nncn3n2)c(=O)c2ccc(C(F)(F)F)c(F)c12` [Final Cpd X3]: the IC50 in test [1] worked out at 0.051 µM. In test [2], this compound registered an EC50 of 4.01 µM.
As for `C[C@]1(O)C[C@@H](NC(=O)Cn2nc(C3CC3)c3cc(C(F)(F)F)ccc3c2=O)C1` [Final Cpd X4], in test [1], the IC50 stood at 0.06 µM. In addition, the EC50 in test [2] was > 20 µM.
For `CC(C)c1nn(CC(=O)Nc2ccc3c(c2)[nH]c(=O)n3C)c(=O)c2ccc(C(F)(F)F)cc12` [Final Cpd X5], in that order: 0.064 µM and > 20 µM.
`CCN1CC[C@@H](O)[C@@H](NC(=O)Cn2nc(C(C)C)c3cc(C(F)(F)F)ccc3c2=O)C1` [Final Cpd X6, N-((3S,4R)-1-ethyl-4-hydroxypiperidin-3-yl)-2-(4-isopropyl-1-oxo-6-(trifluoromethyl)phthalazin-2(1H)-yl)acetamide]: the IC50 in test [1] came out at 0.066 µM. Moreover, the EC50 in test [2] was > 20 µM.
`CCc1nn(CC(=O)Nc2ccc3nncn3c2)c(=O)c2ccc(C(F)(F)F)cc12` [Final Cpd X8]: the IC50 in test [1] stood at 0.075 µM. The EC50 in test [2] worked out at 12.2 µM.
On to `CCN1CCC[C@@H](NC(=O)Cn2nc(C(C)C)c3cc(C(F)(F)F)ccc3c2=O)C1` [Final Cpd X9], for which the IC50 in test [1] is 0.09 µM. For the same compound, the EC50 in test [2] was > 20 µM.
The corresponding values for `CC(C)c1nn(CC(=O)N[C@@H]2CCCN(C3CC3)C2)c(=O)c2ccc(C(F)(F)F)cc12` [Final Cpd X10] are 0.092 µM and > 20 µM.
For `CC(C)c1nn(CC(=O)Nc2nc(Cl)c3nc[nH]c3n2)c(=O)c2ccc(C(F)(F)F)cc12` [Final Cpd X11, N-(6-chloro-9H-purin-2-yl)-2-(4-isopropyl-1-oxo-6-(trifluoromethyl)phthalazin-2(1H)-yl)acetamide], in that order: 0.105 µM and > 20 µM.
Turning to `CC(C)c1nn(CC(=O)Nc2cn3cnnc3cn2)c(=O)c2ccc(C(F)(F)F)cc12` [Final Cpd X14, N-([1,2,4]triazolo[4,3-a]pyrazin-6-yl)-2-(4-isopropyl-1-oxo-6-(trifluoromethyl)phthalazin-2(1H)-yl)acetamide], the IC50 in test [1] came out at 0.116 µM. For the same compound, in test [2], the EC50 is > 20 µM.
As to `CC(C)c1nn(CC(=O)N[C@H]2CN(C3CC3)CC[C@H]2O)c(=O)c2ccc(C(F)(F)F)cc12` [Final Cpd X15, N-((3S,4R)-1-cyclopropyl-4-hydroxypiperidin-3-yl)-2-(4-isopropyl-1-oxo-6-(trifluoromethyl)phthalazin-2(1H)-yl)acetamide], in test [1], the IC50 turned out to be 0.122 µM. Further, in test [2], the EC50 is > 20 µM.
The corresponding values for `CC(C)c1nn(CC(=O)N[C@H]2C[C@@](C)(O)C2)c(=O)c2ccc(C(F)(F)F)c(F)c12` [Final Cpd X17] are 0.147 µM and > 20 µM.
Take `CC(C)c1nn(CC(=O)Nc2ccc3nnnn3n2)c(=O)c2ccc(C(F)(F)F)cc12` [Final Cpd X18]: the IC50 in test [1] worked out at 0.156 µM. The EC50 in test [2] is > 20 µM.
As to `CCC(C)c1nn(CC(=O)Nc2ccc3nncn3c2)c(=O)c2ccc(C(F)(F)F)cc12` (stereo not shown) [Final Cpd X24], the IC50 in test [1] was 0.175 µM. In addition, the EC50 in test [2] is > 20 µM.
